Results published in patent US20060014717A1, “Therapeutic compositions for use in prophylaxis or treatment of diarrheas” (priority 2002, published 2006).

Assays:
[1] = test system: an ETEC and an EPEC strain; settings: cited from earlier work
H. canis CCUG 33835 = experiment: Binding of 35S-labeled Helicobacter species to glycosphingolipids on thin-layer chromatograms; parameters: species or system Helicobacter canis; key: + denotes a significant darkening on the autoradiogram when 2 μg (or 40 μg in the case of the last sample) was applied to TLC plates; − denotes no binding; settings: 2 μg (40 μg for the glycosphingolipid fraction) on TLC plates
Text: (§1) Gastric species examined in the present study included, Helicobacter mustelae ferret isolates from the National Collection of Type Cultures (NCTC) and the Culture Collection of the University of Gothenberg (CCUG), NCTC 12198/CCUG 25175 (equivalent strains from different sources tested), CCUG 23950 and CCUG 23951, Helicobacterfelis CCUG 28539 from a cat, in addition, H. pylori strains CCUG 17874, CCUG 17875 and a clinical isolate 119/95 were used. Enterohepatic helicobacters of animal origin were purchased from the CCUG including, Helicobacter canes CCUG 33835, Helicobacter bilis CCUG 38995, Helicobacter hepaticus CCUG 33637, and Helicobacterfennelliae (CCUG 18820).
(§2) Binding of Helicobacter spp. to glycosphingolipids, both acid and non-acidfractions. Glycosphingolipids were isolated by standard procedures (Karlsson, 1987). The identity of the purified glycosphingolipids was confirmed by mass spectrometry (Samuelsson et al., 1990), proton NMR spectroscopy (Koerner et al., 1983) and degradation studies (Stellner et al., 1973; Yang and Hakomori, 1971).
(§3) Mixtures of glycosphingolipids (40 μg/lane) or pure compounds (2 μg/lane) were subsequently separated using thin-layer chromatography (TLC) on glass- or aluminum-backed silica gel 60 HPTLC plates (Merck, Darmstadt, Germany), with chloroform/methanot/water (60:35:8, by volume) as solvent system. Chemical detection was accomplished by anisaldehyde (Waldi, 1962). Helicobacter spp. were subjected to ^35S-labeling (Angstrom et al., 1998) and suspended in PBS (10^8 CFU/ml) with a specific activity of approximately 1 cpm per 100 organisms. Binding of the labeled-bacteria to glycosphingolipids separated by TLC was achieved using a bacterial-overlay technique coupled with autoradiography detection using XAR-5 X-ray films (Eastman Kodak, Rochester, N.Y.) as previously described (Hansson et al., 1985).

H. bilis CCUG 38995 = experiment: as above; parameters: species or system Helicobacter bilis; key: + denotes a significant darkening on the autoradiogram when 2 μg (or 40 μg in the case of the last sample) was applied to TLC plates; − denotes no binding; settings: 2 μg (40 μg for the glycosphingolipid fraction) on TLC plates
Text: as §1, §2, §3

H. felis CCUG 28539 = experiment: as above; parameters: species or system Helicobacter felis; key: + denotes a significant darkening on the autoradiogram when 2 μg (or 40 μg in the case of the last sample) was applied to TLC plates; − denotes no binding; settings: 2 μg (40 μg for the glycosphingolipid fraction) on TLC plates
Text: as §1, §2, §3

[2] = test system: gastric and enterohepatic Helicobacter spp.; experiment: Binding of Helicobacter spp. to glycosphingolipids (statements for several species)
Text: as §1, §2, §3

[3] = test system: H. mustelae CCUG 23950 & 23951; experiment: Binding of 35S-labeled Helicobacter species to glycosphingolipids on thin-layer chromatograms; parameters: species or system Helicobacter mustelae; key: + denotes a significant darkening on the autoradiogram when 2 μg (or 40 μg in the case of the last sample) was applied to TLC plates; − denotes no binding; settings: 2 μg (40 μg for the glycosphingolipid fraction) on TLC plates
Text: as §1, §2, §3

H. mustelae 25715 = experiment: as above; parameters: species or system Helicobacter mustelae; key: + denotes a significant darkening on the autoradiogram when 2 μg (or 40 μg in the case of the last sample) was applied to TLC plates; − denotes no binding; settings: 2 μg (40 μg for the glycosphingolipid fraction) on TLC plates
Text: as §1, §2, §3

H. pylori CCUG 17875 = experiment: as above; parameters: species or system Helicobacter pylori; key: + denotes a significant darkening on the autoradiogram when 2 μg (or 40 μg in the case of the last sample) was applied to TLC plates; − denotes no binding; settings: 2 μg (40 μg for the glycosphingolipid fraction) on TLC plates
Text: as §1, §2, §3

H. pylori CCUG 17874 = experiment: as above; parameters: species or system Helicobacter pylori; key: + denotes a significant darkening on the autoradiogram when 2 μg (or 40 μg in the case of the last sample) was applied to TLC plates; − denotes no binding; settings: 2 μg (40 μg for the glycosphingolipid fraction) on TLC plates
Text: as §1, §2, §3

H. hepaticus CCUG 33637 = experiment: as above; parameters: species or system Helicobacter hepaticus; key: + denotes a significant darkening on the autoradiogram when 2 μg (or 40 μg in the case of the last sample) was applied to TLC plates; − denotes no binding; settings: 2 μg (40 μg for the glycosphingolipid fraction) on TLC plates
Text: as §1, §2, §3

EPEC strain = settings: listed in decreasing order of activity; cited from earlier work
diarrheagenic E. coli = experiment: Comparison of binding to dilution series of sialyl-neolactotetraosylceramide variants; parameters: species or system Escherichia coli; settings: dilution series of glycolipids
Procedure: (§4) Glycosphingolipid Binding Assays—Binding of ^35S-labeled bacteria to glycosphingolipids on thin-layer chromatograms was done as reported (7). Dried chromatograms were dipped for 1 min in diethylether/n-hexane (1:5, by volume) containing 0.5% (w/v) polyisobutylmethacrylate (Aldrich Chem. Comp. Inc., Milwaukee, Wis.). After drying, the chromatograms were soaked in PBS containing 2% bovine serum albumin (w/v), 0.1% NaN3 (w/v) and 0.1% Tween 20 (by volume) for 2 h at room temperature. The chromatograms were subsequentely covered with radiolabeled bacteria diluted in PBS (2-5×10^6 cpm/ml). Incubation was done for 2 h at room temperature, followed by repeated washings with PBS. The chromatograms were thereafter autoradiographed using XAR-5 X-ray films (Eastman Kodak, Rochester, N.Y.) for 12 h. Autoradiograms were replicated using a CCD camera (Dage-MTI, Inc., Michigan City, Ind.), and analysis of the images was performed using the public domain NIH Image program (developed at the U.S. National Institutes of Health, and available at http://rsb.info.nih.eov/nih-imaee/).
To dissect the sialic acid binding preferences of diarrheagenic E. coli, the binding of bacteria to variants of sialyl-neoleactotetraosylceramide was compared. […] The comparison was performed by using dilution series of glycolipids and comparing the disappearence of the bindings when the amounts of glycolipids were reduced.

E. coli EIEC CCUG 38092 = experiment: Chromatogram binding assay, binding specificities of type strains; parameters: species or system Escherichia coli; settings: prolonged sub-culture, 4 μg per lane
Procedure: Culture Conditions and Labeling—The E. coli strains were cultured on Luria-agar with the addition of 10 μl ^35S-methionine (400 tici; Amersham Pharmacia Biotech, U.K.) at 37° C. for 12 h. The bacteria were harvested by scraping, washed three times with phosphate-buffered saline (PBS), pH 7.3, and thereafter resuspended in PBS (with or without 1% mannose (w/v)) to 1×10^8 CFU/ml. The specific activities of the suspensions were approximately 1 cpm per 100 bacteria.
Thin-Layer Chromatography—Thin-layer chromatography of glycosphingolipids was performed on glass- or aluminum-backed silica gel 60 HPTLC plates (Merck, Darmstadt, Germany), using chloroform/methanol/water 60:35:8 (by volume) as solvent system. Chemical detection was done with anisaldehyde (6).
as §4
However, several wild type diarrheagenic E. coli strains bind to sialic acid (see e.g. FIG. 6 and FIG. 3). […]

[4] = both gastric and enterohepatic Helicobacter spp. tested

CC(=O)N[C@H]1[C@H]([C@H](O)[C@H](O)CO)OC(O)(C(=O)O)C[C@@H]1O (some centres unmarked) [N-acetylneuraminic acid]
negative: Inhibition of binding of an ETEC and an EPEC strain to Caco-2 cells [1]

Galβ4Glcβ1Cer [No. 5]
capable of binding: Binding of Helicobacter spp. to glycosphingolipid, in words [2, 4]
+: Binding of glycosphingolipids to H.canis 33835 (H. canis CCUG 33835) | Binding of glycosphingolipids to H.bilis 38995 (H. bilis CCUG 38995) | Binding of glycosphingolipids to H.felis 28539 (H. felis CCUG 28539) | Binding of glycosphingolipids to H.mustelae 23950 & 23951 [3] | Binding of glycosphingolipids to H.mustelae 25715 (H. mustelae 25715) | Binding of glycosphingolipids to H.pylori 17875 (H. pylori CCUG 17875) | Binding of glycosphingolipids to H.pylori 17874 (H. pylori CCUG 17874) | Binding of glycosphingolipids to H.hepaticus 33637 (H. hepaticus CCUG 33637)

lactosylceramide
negative: Binding of an EPEC strain to commercial glycolipids (EPEC strain) | Inhibition of binding of an ETEC and an EPEC strain to Caco-2 cells [1]

Galβ3GalNAcβ4(NeuAcα3)Galβ4Glcβ1Cer [No. 29]
inhibiting: Inhibition of binding of an ETEC and an EPEC strain to Caco-2 cells [1]

NeuGcα3Galβ4GlcNAcβ3Galβ4Glcβ1Cer [No. 33]
highest affinity: Relative binding affinity, order by disappearance of binding in dilution series (diarrheagenic E. coli)

Galβ3GalNAcβ4Galβ4Glcβ1Cer [No. 11]
binding was demonstrated: Binding of Helicobacter spp. to glycosphingolipid, in words ([2]; H. felis, H. canis, H. hepaticus and H. bilis)
remain: Binding of E. coli CCUG 38092 to pure glycosphingolipids after sub-culture (E. coli EIEC CCUG 38092)
observed to bind: Binding of an EPEC strain to commercial glycolipids (EPEC strain)
+: Binding of glycosphingolipids to H.canis 33835 (H. canis CCUG 33835) | Binding of glycosphingolipids to H.bilis 38995 (H. bilis CCUG 38995) | Binding of glycosphingolipids to H.felis 28539 (H. felis CCUG 28539) | Binding of glycosphingolipids to H.mustelae 23950 & 23951 [3] | Binding of glycosphingolipids to H.mustelae 25715 (H. mustelae 25715) | Binding of glycosphingolipids to H.pylori 17875 (H. pylori CCUG 17875) | Binding of glycosphingolipids to H.pylori 17874 (H. pylori CCUG 17874) | Binding of glycosphingolipids to H.hepaticus 33637 (H. hepaticus CCUG 33637)

Galα3Galβ4Glcβ1Cer [No. 7]
+: Binding of glycosphingolipids to H.canis 33835 (H. canis CCUG 33835) | Binding of glycosphingolipids to H.bilis 38995 (H. bilis CCUG 38995) | Binding of glycosphingolipids to H.felis 28539 (H. felis CCUG 28539) | Binding of glycosphingolipids to H.mustelae 23950 & 23951 [3] | Binding of glycosphingolipids to H.mustelae 25715 (H. mustelae 25715) | Binding of glycosphingolipids to H.pylori 17875 (H. pylori CCUG 17875) | Binding of glycosphingolipids to H.pylori 17874 (H. pylori CCUG 17874) | Binding of glycosphingolipids to H.hepaticus 33637 (H. hepaticus CCUG 33637)
Selective loss of binding: Binding of E. coli CCUG 38092 to pure glycosphingolipids after sub-culture (E. coli EIEC CCUG 38092; listed as isoglobotriaosylceramide)
capable of binding: Binding of Helicobacter spp. to glycosphingolipid, in words [2, 4]

Galβ3GlcNAcβ3Galβ4Glcβ1Cer [No. 23]
capable of binding: Binding of Helicobacter spp. to glycosphingolipid, in words [2, 4]
+: Binding of glycosphingolipids to H.canis 33835 (H. canis CCUG 33835) | Binding of glycosphingolipids to H.bilis 38995 (H. bilis CCUG 38995) | Binding of glycosphingolipids to H.felis 28539 (H. felis CCUG 28539) | Binding of glycosphingolipids to H.mustelae 23950 & 23951 [3] | Binding of glycosphingolipids to H.mustelae 25715 (H. mustelae 25715) | Binding of glycosphingolipids to H.pylori 17875 (H. pylori CCUG 17875) | Binding of glycosphingolipids to H.pylori 17874 (H. pylori CCUG 17874) | Binding of glycosphingolipids to H.hepaticus 33637 (H. hepaticus CCUG 33637)

NeuGcα3Galβ4GlcNAcβ3Galβ4GlcNAcβ3Galβ4Glcβ1Cer [No. 36]
+: Binding of glycosphingolipids to H.canis 33835 (H. canis CCUG 33835) | Binding of glycosphingolipids to H.bilis 38995 (H. bilis CCUG 38995) | Binding of glycosphingolipids to H.felis 28539 (H. felis CCUG 28539) | Binding of glycosphingolipids to H.mustelae 23950 & 23951 [3] | Binding of glycosphingolipids to H.mustelae 25715 (H. mustelae 25715) | Binding of glycosphingolipids to H.pylori 17875 (H. pylori CCUG 17875) | Binding of glycosphingolipids to H.pylori 17874 (H. pylori CCUG 17874) | Binding of glycosphingolipids to H.hepaticus 33637 (H. hepaticus CCUG 33637)

NeuAcα3Galβ4GlcNAcβ3Galβ4Glcβ1Cer [No. 31]
finally: Relative binding affinity, order by disappearance of binding in dilution series (diarrheagenic E. coli)
